Experimental data reported in US12595239B2, “Substituted isoxazoline derivatives” (BASF SE, priority 2021, dated 2026).

Columns and labels:
Type in all cases: in vivo
[1] = tested on: Dichromothrips corbetti; experiment: B.7 Orchid Thrips, floral-immersion test; settings: adult thrips, 72 hours after treatment, read-out: mortality in comparison with untreated controls
Experimental: Dichromothrips corbetti adults used for bioassay were obtained from a colony maintained continuously under laboratory conditions. For testing purposes, the test compound was diluted in a 1:1 mixture of acetone:water (vol:vol), plus Kinetic at a rate of 0.01% v/v.
Thrips potency of each compound was evaluated by using a floral-immersion technique. Each orchid petal was dipped into treatment solution and allowed to dry in Petri dishes. Treated petals were placed into individual re-sealable plastic along with about 20 adult thrips. All test arenas were held under dark condition and a temperature of about 28° C. for duration of the assay. The percent mortality was recorded 72 hours after treatment.

[2] = tested on: Plutella xylostella; experiment: B.6 Diamond Back Moth, cabbage leaf disc dip test; settings: foliar, 3rd instar larvae, 72 hours after treatment, read-out: mortality in comparison with untreated controls
Experimental: The active compound was dissolved at the desired concentration in a mixture of 1:1 (vol:vol) distilled water:acetone. Surfactant (Kinetic) was added at a rate of 0.01% (vol/vol). The test solution was prepared at the day of use. Cabbage leaf discs (60 mm in diameter) were dipped in test solution and air-dried. Treated leaves were placed in petri dishes lined with moistened filter paper and inoculated with ten 3rd instar larvae. Mortality was recorded 72 hours after treatment. Feeding damages were also recorded using a scale of 0-100%.

[3] = tested on: Spodoptera eridania; experiment: B.11 Southern Armyworm 2nd instar larvae, lima bean foliar spray test; settings: 96 h, 4 days after treatment, read-out: mortality in comparison with untreated controls
Experimental: The active compounds were formulated by a Tecan liquid handler in 100% cyclohexanone as a 10′000 ppm solution supplied in tubes. The 10′000 ppm solution was serially diluted in 100% cyclohexanone to make interim solutions. These served as stock solutions for which final dilutions were made by the Tecan in 50% acetone:50% water (v/v) into 10 or 20 ml glass vials. A nonionic surfactant (Kinetic®) was included in the solution at a volume of 0.01% (v/v). The vials were then inserted into an automated electrostatic sprayer equipped with an atomizing nozzle for application to plants/insects. Lima bean plants (variety Sieva) were grown 2 plants to a pot and selected for treatment at the 1st true leaf stage. Test solutions were sprayed onto the foliage by an automated electrostatic plant sprayer equipped with an atomizing spray nozzle. The plants were dried in the sprayer fume hood and then removed from the sprayer. Each pot was placed into perforated plastic bags with a zip closure. Ten to 11 armyworm larvae were placed into the bag and the bags zipped closed. Test plants were maintained in a growth room at about 25° C. and about 20-40% relative humidity for 4 days, avoiding direct exposure to fluorescent light (14:10 light:dark photo-period) to prevent trapping of heat inside the bags. Mortality and reduced feeding were assessed 4 days after treatment, compared to untreated control plants.

[4] = tested on: Bemisia argentifolii; experiment: B.12 Silverleaf Whitefly (adults), cotton plant spray test; settings: 72 h, 3 days after treatment, read-out: mortality in comparison with untreated controls
Experimental: The active compounds were formulated by a Tecan liquid handler in 100% cyclohexanone as a 10,000-ppm solution supplied in tubes. The 10,000-ppm solution was serially diluted in 100% cyclohexanone to make interim solutions. These served as stock solutions for which final dilutions were made by the Tecan in 50% acetone:50% water (v/v) into 5 or 10 ml glass vials. A nonionic surfactant (Kinetic®) was included in the solution at a volume of 0.01% (v/v). The vials were then inserted into an automated electrostatic sprayer equipped with an atomizing nozzle for application to plants/insects. Cotton plants at the cotyledon stage (one plant per pot) were sprayed by an automated electrostatic plant sprayer equipped with an atomizing spray nozzle. The plants were dried in the sprayer fume hood and then removed from the sprayer. Each pot was placed into a plastic cup and about 10 to 12 whitefly adults (approximately 3-5 days old) were introduced. The insects were collected using an aspirator and a nontoxic Tygon® tubing connected to a barrier pipette tip. The tip, containing the collected insects, was then gently inserted into the soil containing the treated plant, allowing insects to crawl out of the tip to reach the foliage for feeding. Cups were covered with a reusable screened lid. Test plants were maintained in a growth room at about 25° C. and about 20-40% relative humidity for 3 days, avoiding direct exposure to fluorescent light (14:10 light:dark photoperiod) to prevent trapping of heat inside the cup. Mortality was assessed 3 days after treatment, compared to untreated control plants.

[5] = tested on: Anthonomus grandis; experiment: B.1 Boll weevil (Anthonomus grandis), 96-well microtiter plate diet test; settings: 120 h, egg and larval mortality, 5 days, read-out: mortality in comparison with untreated controls
Experimental: For evaluating control of boll weevil, the test unit consisted of 96-well-microtiter plates containing an insect diet and 5-10 A. grandis eggs.
The compounds were formulated using a solution containing 75% v/v water and 25% v/v DMSO. Different concentrations of formulated compounds were sprayed onto the insect diet at 5 μl, using a custom-built micro atomizer, at two replications.
After application, microtiter plates were incubated at about 25±1° C. and about 75±5% relative humidity for 5 days. Egg and larval mortality were then visually assessed.

[6] = tested on: Heliothis virescens; experiment: B.4 Tobacco Budworm, microtiter plate diet test; settings: 120 h, egg and larval mortality, 5 days, read-out: mortality in comparison with untreated controls
Experimental: For evaluating control of Tobacco Budworm, the test unit consisted of 96-well-microtiter plates containing an insect diet and 15-25 H. virescens eggs. The compounds were formulated using a solution containing 75% v/v water and 25% v/v DMSO. Different concentrations of formulated compounds were sprayed onto the insect diet at 10 μl, using a custom-built micro atomizer, at two replications. After application, microtiter plates were incubated at about 28±1° C. and about 80±5% relative humidity for 5 days. Egg and larval mortality was then visually assessed.

[7] = tested on: Myzus persicae; experiment: B.3 Green Peach Aphid (mixed life stages), systemic artificial diet test; settings: 72 h, treated aphid diet, 3 days, read-out: mortality in comparison with untreated controls
Text: For evaluating control of Green Peach Aphid through systemic means the test unit consisted of 96-well-microtiter plates containing liquid artificial diet under an artificial membrane. The compounds were formulated using a solution containing 75% v/v water and 25% v/v DMSO. Different concentrations of formulated compounds were pipetted into the aphid diet, using a custom-built pipette, at two replications. After application, 5-8 adult aphids were placed on the artificial membrane inside the microtiter plate wells. The aphids were then allowed to suck on the treated aphid diet and incubated at about 23±1° C. and about 50±5% relative humidity for 3 days. Aphid mortality and fecundity was then visually assessed.

[8] = tested on: Aedes aegypti; experiment: whole plant or invertebrate; settings: 48 h, larval mortality, 2 days, read-out: mortality in comparison with untreated controls
Experimental: For evaluating control of Yellow Fever Mosquito, the test unit consisted of 96-well-microtiter plates containing 200 μl of tap water per well and 5-15 freshly hatched A. aegypti larvae. The active compounds were formulated using a solution containing 75% (v/v) water and 25% (v/v) DMSO. Different concentrations of formulated compounds or mixtures were sprayed onto the insect diet at 2.5 μl, using a custom-built micro atomizer, at two replications.
After application, microtiter plates were incubated at 28±1° C., 80±5% RH for 2 days. Larval mortality was then visually assessed.

CC(C)(C#N)NC(=O)c1cc(NC2=NOC(c3cc(Cl)c(F)c(Cl)c3)(C(F)(F)F)C2)ccc1Cl (stereo not shown) [I-58, 2-chloro-N-(1-cyano-1-methyl-ethyl)-5-[[5-(3,5-dichloro-4-fluoro-phenyl)-5-(trifluoromethyl)-4H-isoxazol-3-yl]amino]benzamide]
≥ 75%: mortality at 300 ppm [1] | mortality at 300 ppm [2] | mortality at 300 ppm [3]

O=C(N[C@@H]1CON(CC(F)(F)F)C1=O)c1cc(NC2=NOC(c3cc(Cl)c(F)c(Cl)c3)(C(F)(F)F)C2)ccc1Cl (stereo partly drawn) [I-114, 2-chloro-5-[[5-(3,5-dichloro-4-fluoro-phenyl)-5-(trifluoromethyl)-4H-isoxazol-3-yl]amino]-N-[(4R)-3-oxo-2-(2,2,2-trifluoroethyl)isoxazolidin-4-yl]benzamide]
≥ 75%: mortality at 300 ppm [4] | mortality at 300 ppm [1] | mortality at 300 ppm [2] | mortality at 300 ppm [3]

O=C(Nc1cnccc1F)c1cc(NC2=NOC(c3cc(Cl)c(F)c(Cl)c3)(C(F)(F)F)C2)ccc1Cl (stereo not shown) [I-62, 2-chloro-5-[[5-(3,5-dichloro-4-fluoro-phenyl)-5-(trifluoromethyl)-4H-isoxazol-3-yl]amino]-N-(4-fluoro-3-pyridyl)benzamide]
≥ 75%: mortality at 300 ppm [1] | mortality at 300 ppm [2]

CN(C1=NOC(c2cc(Cl)cc(Cl)c2)(C(F)(F)F)C1)c1ccc(Cl)c(C(=O)NC2(c3cnn(C)c3)CC2)c1 (stereo not shown) [I-125, 2-chloro-5-[[5-(3,5-dichlorophenyl)-5-(trifluoromethyl)-4H-isoxazol-3-yl]-methyl-amino]-N-[1-(1-methylpyrazol-4-yl)cyclopropyl]benzamide]
≥ 75%: mortality at 2500 ppm [5] | mortality at 2500 ppm [6] | mortality at 300 ppm [1] | mortality at 300 ppm [2] | mortality at 2500 ppm [7]

N#CC1(NC(=O)c2c(F)ccc(NC3=NOC(c4cc(Cl)cc(Cl)c4)(C(F)(F)F)C3)c2F)CC1 (stereo not shown) [I-30, N-(1-cyanocyclopropyl)-3-[[5-(3,5-dichlorophenyl)-5-(trifluoromethyl)-4H-isoxazol-3-yl]amino]-2,6-difluoro-benzamide]
≥ 75%: mortality at 2500 ppm [5] | mortality at 300 ppm [1] | mortality at 300 ppm [2] | mortality at 300 ppm [3]

O=C(Nc1ccc(F)c(NC(=O)C(F)F)c1F)c1cc(NC2=NOC(c3cc(Cl)cc(Cl)c3)(C(F)(F)F)C2)ccc1Cl (stereo not shown) [I-6, 2-chloro-5-[[5-(3,5-dichlorophenyl)-5-(trifluoromethyl)-4H-isoxazol-3-yl]amino]-N-[3-[(2,2-difluoroacetyl)amino]-2,4-difluoro-phenyl]benzamide]
≥ 75%: mortality at 300 ppm [1] | mortality at 300 ppm [2]

CCOC(=O)N(C1=NOC(c2cc(Cl)cc(Cl)c2)(C(F)(F)F)C1)c1ccc(Cl)c(C(=O)N(C(=O)OCC)C2(C#N)CC2)c1 (stereo not shown) [I-100, ethyl N-[4-chloro-3-[(1-cyanocyclopropyl)-ethoxycarbonyl-carbamoyl]-phenyl]-N-[5-(3,5-dichlorophenyl)-5-(trifluoromethyl)-4H-isoxazol-3-yl]carbamate]
≥ 75%: mortality at 300 ppm [4] | mortality at 300 ppm [1] | mortality at 300 ppm [2] | mortality at 300 ppm [3]

O=C(NC1CN(S(=O)(=O)C(F)F)C1)c1cc(NC2=NOC(c3cc(Cl)c(F)c(Cl)c3)(C(F)(F)F)C2)ccc1Cl (stereo not shown) [I-41, 2-chloro-5-[[5-(3,5-dichloro-4-fluoro-phenyl)-5-(trifluoromethyl)-4H-isoxazol-3-yl]amino]-N-[1-(difluoromethylsulfonyl)azetidin-3-yl]benzamide]
≥ 75%: mortality at 300 ppm [1] | mortality at 300 ppm [2] | mortality at 300 ppm [3]

O=C(Nc1ccc(F)cc1F)c1cccc(NC2=NOC(c3cc(Cl)cc(Cl)c3)(C(F)(F)F)C2)c1F (stereo not shown) [I-48, 3-[[5-(3,5-dichlorophenyl)-5-(trifluoromethyl)-4H-isoxazol-3-yl]amino]-N-(2,4-difluoro-phenyl)-2-fluoro-benzamide]
≥ 75%: mortality at 300 ppm [1] | mortality at 300 ppm [2] | mortality at 300 ppm [3]

O=C(NC1(c2ccnnc2)CC1)c1cc(NC2=NOC(c3cc(Cl)cc(Cl)c3)(C(F)(F)F)C2)ccc1Cl (stereo not shown) [I-162, 2-chloro-5-[[5-(3,5-dichlorophenyl)-5-(trifluoromethyl)-4H-isoxazol-3-yl]amino]-N-(1-pyridazin-4-ylcyclopropyl)benzamide]
≥ 75%: mortality at 2500 ppm [5] | mortality at 300 ppm [4] | mortality at 300 ppm [2] | mortality at 300 ppm [3] | mortality at 2500 ppm [8]

N#CC1(NC(=O)c2cc(S(=O)(=O)C3=NOC(c4cc(Cl)cc(Cl)c4)(C(F)(F)F)C3)ccc2Cl)CC1 (stereo not shown) [II-3, 2-chloro-N-(1-cyanocyclopropyl)-5-[[5-(3,5-dichlorophenyl)-5-(trifluoromethyl)-4H-isoxazol-3-yl]sulfonyl]benzamide]
≥ 75%: mortality at 300 ppm [2]

O=C(Nc1ccc(F)cc1F)c1cc(NC2=NOC(c3cc(Cl)cc(Cl)c3)(C(F)(F)Cl)C2)ccc1Cl (stereo not shown) [I-131, 2-chloro-5-[[5-[chloro(difluoro)methyl]-5-(3,5-dichlorophenyl)-4H-isoxazol-3-yl]amino]-N-(2,4-difluorophenyl)benzamide]
≥ 75%: mortality at 2500 ppm [5] | mortality at 2500 ppm [6] | mortality at 300 ppm [1] | mortality at 300 ppm [2] | mortality at 300 ppm [3] | mortality at 2500 ppm [7] | mortality at 2500 ppm [8]
